Measured values reported in US20240343699A1, “DERIVATIVES OF SUBSTITUTED MORPHOLINES AND USES THEREOF” (Supernus Pharmaceuticals, Inc., priority 2023, published 2024).

Key:
[1] = system: recognition memory; test: Novel object recognition, scopolamine-impairment model, 3 hr retention interval
[2] = system: amidase; test: Stability in the presence of amidase and amidase inhibitors in PBS; assay type: biochemical; conditions: amidase 50 units in PBS
Experimental: Stability of COMPOUND A in the Presence of Amidase in Pure System. […] Test article (COMPOUND A) stock solution was prepared in 100% DMSO at a concentration of 10 mM. An aliquot (50 μL) of test article stock solution was added to 950 μL of PBS with and without amidase (50 units) in 1.5 mL tubes, and the mixture was vortexed and incubated at 37° C. with 5% CO2 for 120 min. Samples (50 μL) were taken at 0, 15, 30, 60, and 120 min after being vortexed. Samples were quenched in 150 μL acetonitrile/0.1% formic acid solution and briefly vortexed then immediately frozen at −80° C. Stability was determined by measuring loss of parent compound using LC/MS/MS methods. Each exposure condition and time point were done in triplicate.
Stability of COMPOUND A in the Presence of Amidase and Amidase Inhibitors in a Phosphate-buffered Saline (PBS). To confirm inhibition of the amidase, individual inhibitors were added to PBS with amidase (50 units). A solution without amidase and without inhibitors was also tested as a control. The individual inhibitors tested were Chloroacetone at 200 μM and MAFP at 40 nM. Amidase solution was prepared as described above and inhibitors were added to the solutions to the intended concentrations. […] Stability was determined by measuring loss of parent compound using LC/MS/MS methods. […]

[3] = system: cognitive flexibility; test: Operant set-shifting test against PCP; assay type: in vivo, male Wistar rats
Experimental: This assay serves as a model of impaired executive function associated with neuropsychiatric disorders like schizophrenia. The aim of this study was to evaluate COMPOUND C to reverse deficits observed with PCP on cognitive flexibility using the operant set-shifting test in the rat.
Substances & Formulation.
Doses were prepared by separate weighing (W/V). COMPOUND C formulations were prepared fresh on each dosing day and dosing was completed within 8 hours of formulation. Phencyclidine (PCP) hydrochloride, white powder, was dissolved in physiological saline by magnetic stirring, fresh each day of dosing.
Test System. 78 male Wistar rats were supplied for this study. • 72 rats, 8-9 weeks old, weighing 218-299 g at the beginning of the visual discrimination were submitted to the entire behavioral testing and assigned to match groups based on their performance during the second visual discrimination session. • 6 spare rats were submitted to lever pressing, side bias and visual discrimination but were discarded for the testing period (set-shift and reversal)
The experimental protocol which detects effects on behavioral flexibility follows that described by Floresco et al. (Behav. Brain Res., 190, 85-96 (2008)).
Apparatus. The apparatus consists of standard Med Associates ENV-008 Skinner boxes (30×25×30 cm) fitted with a house light, two retractable levers and a food pellet dispenser. The levers are located on either side of the food receptacle connected to the pellet dispenser. A light emitting diode stimulus light is positioned centrally above each lever and served as a stimulus for visual-cue discrimination learning.
Acquisition of lever-pressing (training). The aim of this phase was to train animals to lever-press to receive a food pellet reward.
Side bias. On the last day of training, the side bias for the rat was determined. The session was similar to the lever pressing session except that both levers were inserted into the chamber together (i.e. 90 levers presentations every 20 seconds). Again, the stimulus lights above each of the levers were not illuminated during this training session. On the first levers presentation, a food pellet was delivered after responding on either lever. Upon subsequent insertion of the levers, food was delivered only if the rat responded on the lever opposite to the one chosen initially. If the rat chose the same lever to the initial choice, no food was delivered. This continued until the rat chose the lever opposite to the one chosen initially. After choosing both levers, a new trial commenced. Thus, one trial for the side bias procedure consisted of responded on both levers. The sessions terminated after 90 levers presentations or after completion of 21 trials.
Visual-cue discrimination learning. After determining the side bias, animals were submitted to visual-cue discrimination learning.
A session began with both levers retracted and the chamber in darkness (the inter-trial state). Every 20 seconds, a trial began with illumination of one of the stimulus lights above one of the levers. 3 seconds later, the house light was illuminated, and both levers were inserted into the chamber. […] After food delivery, the house light remained on for another 4 seconds, after which the chamber returned to the inter-trial state. If the rat responded on the other lever (incorrect response), both levers retracted immediately without food delivery and the chamber reverted to the inter-trial state.

[4] = in vivo; conditions: beagle, dog, plasma, po, 80 mg/kg

Compound: CCOc1ccccc1OC[C@@H]1CN(C(=O)OC(C)OC(=O)[C@@H](N)C(C)C)CCO1 (stereo partly drawn) [COMPOUND A]
- d2 ratios: effect on scopolamine impairment ([1]; COMPOUND A 90 mg/kg p.o. + scopolamine): significantly attenuated this effect of scopolamine
- preference for the novel object (exploration times) ([1]; COMPOUND A 30, 60, and 90 mg/kg p.o. + scopolamine, 3 hr delay): significant (p<0.05) preference for the novel object
- role of amidase in degradation [2]: amidase activity played an important role

Compound: CCOc1ccccc1OC[C@@H]1CN(C(=O)OC(OC(=O)[C@H](N)C(C)C)C(C)C)CCO1 (stereo partly drawn) [COMPOUND C]
- number of omissions, post-hoc Dunnett ([3]; COMPOUND C 120 mg/kg p.o. + PCP, first set-shift session): significant effects at the dose of 120 mg/kg
- number of perseverative errors vs PCP controls ([3]; COMPOUND C 40, 80, 120 and 160 mg/kg p.o. + PCP): did not significantly affect
- number of trials to reach the criterion vs PCP controls ([3]; COMPOUND C 40, 80, 120 and 160 mg/kg p.o. + PCP, first set-shift and first reversal sessions): did not significantly affect the number of trials to reach the criterion
- omissions vs PCP-treated rats ([3]; COMPOUND C 40-160 mg/kg p.o. + PCP): increased omissions
- AUC(0-inf) ([4]; female): 591 ng·h/mL
- AUC(0-t) ([4]; female): 572 ng·h/mL
- Cmax ([4]; female): 308 ng/mL
- MRT inf ([4]; female): 4.78 h
- MRT last ([4]; female): 3.16 h
- Tmax ([4]; female): 0.5 h
- half-life ([4]; female): 4.73 h
- AUC(0-inf) ([4]; male): 1200 ng·h/mL
- AUC(0-t) ([4]; male): 1190 ng·h/mL
- Cmax ([4]; male): 775 ng/mL
- MRT inf ([4]; male): 2.8 h
- MRT last ([4]; male): 2.58 h
- Tmax ([4]; male): 0.5 h
- half-life ([4]; male): 2.94 h
